Experimental data: patent US4895852A, “Antitumor alkaloids” (Harbor Branch Oceanographic Institution, Inc., priority 1987, dated 1990)
Values after ≈ are worked out from the molar mass of the structure shown.

System: P388 mouse leukemia cells
Experiment: P388 mouse leukemia cell assay
Assay type: cell-based
Settings: for minimal effective concentration: P388, 48 h, summary sentence on Table 1, mouse leukemia cells, read-out: good antitumor activity at concentrations of at least (against mouse leukemia cells); for IC50: P388 mouse leukemia cells, 48 hours, 37°, 10% CO2
Description: P388 mouse leukemia cells are grown in Dulbecco MEM medium with 10% horse serum, 4mM glutamine, and 20ug/ml gentamycin (Biologos, Inc.). Cells are incubated in 10% CO2 and subcultured 2 times per week.
1. Add compound to each well of a 24-well plate or tube and allow solvent to evaporate to dryness.
2. Add 2ml (1.2×10^5) cells to each well or tube and mix.
3. Incubate in 10% CO2 , at 37° for 48 hours.
4. Read platees with an inverted microscope, scoring activity from 1+ to 4+ as follows: ND (not detectable), >90%; 1+, 75-90%; 2+, 50-74%; 3+, 25-49%; 4+, <25% of control growth. Cell counts are performed on each tube and results are reported as percent of control. Alternatively, scoring may be expressed as IC50 which represents the minimum concentration of the composition required to inhibit 50% of the cell growth on the plate. […]

Row | Structure (SMILES) | minimal effective concentration [µg/mL] | IC50 [µg/mL]
1 | O=C1CCCN2[C@@H](CC1)C[C@]13CN4CCCC/C=C\CC[C@](O)(C=C(c5nccc6c5[nH]c5c(O)cccc56)C1CC4)[C@H]23 (stereo partly shown) [Manzamine F] | ≥ 5 | 5 (≈ 8.61 µM)
2 | O=C1CCCN2C(CC1)CC13CN4CCCCC=CCCC(O)(C=C(c5nccc6c5[nH]c5ccccc56)C1CC4)C23 (stereo not shown) [Manzamine E] | ≥ 5 | 5 (≈ 8.85 µM)
